Source: patent US10426775B2, “Methods for treating Friedreich's ataxia with etravirine” (Fratagene Therapeutics srl, priority 2017, dated 2019)
Residues, ends and D or L forms follow the SMILES beside them. *: point of attachment. Cbz = O=C(OCc1ccccc1)*

How the values were obtained:
[1] = tested on: frataxin-ProLabel fusion; assay: frataxin-ProLabel cell-based reporter assay (β-galactosidase enzyme fragment complementation), library screening; parameters: species or system human; conditions: frataxin-ProLabel transfected cells treated with MG132
Method: The FDA-approved drug library (SELLECKCHEM SCREENING LIBRARIES®) that was used in the screening was composed of 853 drugs. The library was provided in a total of ten 96-well plate, with the drugs at a stock concentration of 10 mM in dimethyl sulfoxide (DMSO). To evaluate the effect of drugs on frataxin abundance, we generated a fusion construct between frataxin and ProLabel that was used as a reporter in a cell-based assay. The system is based on […] enzyme fragment complementation (Eglen, 2002). […] Indeed, treatment of frataxin-ProLabel transfected cells with MG132 promotes frataxin accumulation, which results in a 5-fold increase in the intensity of the luminescence signal. […]
For the screening, HEK-293 cells were transiently transfected with pCMV-fxn-ProLabel. […] After 24 hours, the complementary β-galactosidase subunit and the substrate were added and chemiluminescence emission was measured by luminometer reading. […] The chemiluminescent signal was monitored over a period of 210 minutes. […]
To analyse the FDA-approved drug screening results, an arbitrary threshold was established for each plate as the average of the luminescence measured in all the wells of the plate plus 2 standard deviations. Luminescence signal from each well was then normalized on threshold value. […]

[2] = tested on: newly synthesized frataxin mRNA; assay: Nascent frataxin transcripts (EU metabolic labeling, Click-iT capture, real-time PCR) in HEK293-fxn; assay type: cell-based, human; conditions: 10 μM, 4 or 8 hours
Excerpt: We then investigated whether the observed increase in frataxin protein levels is due to an upregulation of the frataxin mRNA, either promoted by an increase in the […] rate of frataxin mRNA or by its stabilization. To understand whether etravirine promotes de novo synthesis of frataxin mRNA, we metabolically labeled nascent transcripts through the incorporation of 5-ethynyl uridine (EU). Through a click chemistry-based reaction, biotin was then conjugated to EU-labelled transcripts, thus allowing selective isolation and analysis of newly synthesized mRNA. We therefore quantitatively analyzed the relative amount of newly synthesized frataxin mRNA in etravirine-treated HEK293-fxn cells, compared to untreated control cells. […] We then analyzed the effect of etravirine on the decay of frataxin transcript observed upon treatment with actinomycin. HEK293-fxn cells were treated with actinomycin for 4, 8 or 12 hours in the presence or absence of etravirine and frataxin mRNA was quantitated by RT-PCR.
HEK 293-fxn stably expressing frataxin (A), HEK 293 (B), or FRDA lymphoblast cell line GM16203 (C) were treated with 10 μM etravirine for the indicated time points. Protein extracts were resolved on SDS-PAGE and analyzed by western blot with anti-frataxin antibody and anti-tubulin as a loading control. Etr: etravirine; tub: tubulin; fxn pre: frataxin precursor. […]

SMILES	increase in the intensity of the luminescence signal [1] [fold]	relative amount of newly synthesized frataxin mRNA vs untreated control cells [2]
CC(C)C[C@@H](C=O)NC(=O)[C@H](CC(C)C)NC(=O)[C@H](CC(C)C)NC(=O)OCc1ccccc1 [MG132] (Cbz-Leu-Leu-Leu-aldehyde)	5	–
O=C(CCCCCCC(=O)Nc1ccccc1)NO [Vorinostat]	–	significantly upregulates
